The test system of assay [1] is mice from inbred strains with two different haplotypes of the Sac gene. The settings on record: strain preferences known from Lush et al., cited from earlier work.
In another assay the test system is 129.B6-Sac congenic mice. From the text: (§1) Preferences for 10% ethanol for the same mouse strains were studied as described in Abstr. of the 23th RSA Meeting (June 2000, Denver, Colo.).
Assay [2] relates to mouse strains with 'B6-like' or '129-like' haplotype of Gpr98.
Excerpt: as §1

Where [3] appears, read: strains with the 129-like haplotype of Sac, p=0.0015 vs B6-like.
[4] abbreviates: strains with the B6-like haplotype of Sac.

Where two headings read alike, the source gives them in different places.

For the compound `O=C1NS(=O)(=O)c2ccccc21` [saccharin], the sweetener preference is listed as 57±2% in assay [1] (setting [3]) and 82±4% in assay [1] (setting [4]).

Take `OC[C@H]1O[C@@](CO)(O[C@H]2O[C@H](CO)[C@@H](O)[C@H](O)[C@H]2O)[C@@H](O)[C@@H]1O` [sucrose]: the sweetener preference in assay [1] (setting [3]) is on record as 54±1%; in assay [1] (setting [4]), 86±6%.

Turning to `CCO` [ethanol], the “consumption of 10% ethanol solution” value was determined as 1.50 ± 0.15 mL/day in the assay on 129.B6-Sac congenic mice (congenic mice homozygous for the 194-kb donor fragment from the B6 strain) and 1.19 ± 0.11 mL/day in the assay on 129.B6-Sac congenic mice (congenic mice without the donor fragment, p<0.05, one-tailed t-test). Further, the “preference for 10% ethanol” value stood at 12±2% in assay [2] (strains with the '129-like' haplotype, n=10 strains, p<0.05, one-tailed t-test) and 20±4% in assay [2] (strains with the 'B6-like' haplotype, n=14 strains).

The values are drawn from patent publication US20040081964A1, “Gene and sequence variation associated with sensing carbohydrate compounds and other sweeteners” (priority 2002, published 2004).
